Patent publication US11905306B2 (priority 2021, dated 2024)

Legend:
Toronto 2 SARS CoV-1 = assay: organism not typed; format: cell-based; conditions: Vero C1008, 72 h, read-out: SARS-1 EC50 (μM) VeroE6
USA_WA1/2020 SARS CoV-2 = assay: microbe, parasite or virus in culture; format: cell-based; conditions: Severe acute respiratory syndrome coronavirus 2, Vero C1008, 72 h, read-out: SARS-2 EC50 (μM) VeroE6
SARS-2 [1] = assay: microbe, parasite or virus in culture; format: cell-based; conditions: Severe acute respiratory syndrome coronavirus 2, read-out: SARS-2 VU-EC50 (μM) (A549-hACE2)
SARS-2 [2] = system: SARS-2
in vitro = conditions: African green monkey

| SMILES | EC50 (Toronto 2 SARS CoV-1) [µM] | EC50 (USA_WA1/2020 SARS CoV-2) [µM] | EC50 (SARS-2 [1]) [µM] | SARS-2 VU-VTR @ 20 μM (A549-hACE2) (logs) (SARS-2 [2]) | CC50 (in vitro) [nM] |
| --- | --- | --- | --- | --- | --- |
| O=C1CCc2cc(C(=O)Nc3cccc(C#Cc4ccccn4)c3)ccc2N1 [Compound 1, 2-Oxo-N-(3-(pyridin-2-ylethynyl)phenyl)-1,2,3,4-tetrahydroquinoline-6-carboxamide] | 5.07 ± 2.89 | 5.81 ± 2.51 | 7.32 | 1.95 | > 30000 |
| O=C(Nc1cccc(C#Cc2ccccn2)c1)c1ccc(-c2ccn[nH]2)cc1 [Compound 40, 4-(1H-Pyrazol-5-yl)-N-(3-(pyridin-2-ylethynyl)phenyl)benzamide] | 0.53 | 1 | 0.81 | 3.2 | 38600 |
| CC(C)n1nccc1-c1ccc(NC(=O)c2cccc(C#Cc3ccccn3)c2)cc1 [Compound 69, N-(4-(1-isopropyl-1H-pyrazol-5-yl)phenyl)-3-(pyridin-2-ylethynyl)benzamide] | 0.24 | 0.45 | 0.22 | 3.3 | > 30000 |
| O=C1CCc2cc(NC(=O)c3cccc(C#Cc4ccccn4)c3)ccc2N1 [Compound 54, N-(2-oxo-1,2,3,4-tetrahydroquinolin-6-yl)-3-(pyridin-2-ylethynyl)benzamide] | > 30 | 3 | 1.42 | 2.24 | > 30000 |
| O=C(Nc1cccc(C#Cc2ccccn2)c1)c1ccc(NC(=O)C2CCC2)cc1 [Compound 9, 4-(Cyclobutanecarboxamido)-N-(3-(pyridin-2-ylethynyl)phenyl)benzamide] | 0.21 | 0.26 | 0.69 | 1.88 | > 30000 |
| CC(C)(C)OC(=O)c1ccc(C(=O)Nc2cccc(C#Cc3ccccn3)c2)cc1 [Compound 44, tert-Butyl 4-((3-(pyridin-2-ylethynyl)phenyl)carbamoyl)benzoate] | 0.07 | 0.16 | 0.22 | 2.41 | 24200 |
| O=C(Nc1cccc(C#Cc2ccccn2)c1)c1ccc(NC(=O)C2CC2)cc1 [Compound 8, 4-(Cyclopropanecarboxamido)-N-(3-(pyridin-2-ylethynyl)phenyl)benzamide] | 0.47 | 0.94 | 1.07 | 1.53 | > 30000 |
| O=C(Nc1cccc(C#Cc2ccccn2)c1)c1ccc(N2CCNC2=O)cc1 [Compound 14, 4-(2-Oxoimidazolidin-1-yl)-N-(3-(pyridin-2-ylethynyl)phenyl)benzamide] | 1.05 | 1.06 | 2.31 | 1.84 | > 30000 |
| O=C(Nc1cc(C#Cc2ccccn2)cc(OC(F)(F)F)c1)c1ccc(N2CCCCC2=O)cc1 [Compound 50, 4-(2-Oxopiperidin-1-yl)-N-(3-(pyridin-2-ylethynyl)-5-(trifluoromethoxy)phenyl)benzamide] | 0.13 | 0.18 | 0.09 | 2.59 | > 30000 |
